# Earlier results, collected in patent US20110274751A1 (Sanovel Ilac Sanayi Ve Ticaret Anonim Sirketi, priority 2010, published 2011).
# Counter-ions that a name gives are not always drawn.
# Columns and labels:
# [1] = in vivo
solubility in water (water),solubility,half-life [1] [h],SMILES
highly-soluble,–,–,COc1ccc(CN2CCNCC2)c(OC)c1OC [Trimetazidine dihydrochloride]
–,considerably high solubility,6,"COc1ccc(CN2CCNCC2)c(OC)c1OC [Trimetazidine, 1-(2,3,4-trimethoxybenzyl)piperazine]"
